Test results taken from patent US20150352108A1, “AMINO-PYRIMIDINE COMPOUNDS AS INHIBITORS OF TBK1 AND/OR IKK EPSILON” (Alzheimer's Institute of America, priority 2009, published 2015).
Where two headings read alike, the source gives them in different places.

Tests used:
TBK1 = molecular target: T1, TBK1 (Homo sapiens, UniProt Q9UHD2); assay: In-vitro TBK1 kinase assay ([γ33]ATP filter-plate); type: biochemical
T1 construct: His-tag; made in house; host or cells: Sf9 insect cells
T1 sequence (Q9UHD2 1-729): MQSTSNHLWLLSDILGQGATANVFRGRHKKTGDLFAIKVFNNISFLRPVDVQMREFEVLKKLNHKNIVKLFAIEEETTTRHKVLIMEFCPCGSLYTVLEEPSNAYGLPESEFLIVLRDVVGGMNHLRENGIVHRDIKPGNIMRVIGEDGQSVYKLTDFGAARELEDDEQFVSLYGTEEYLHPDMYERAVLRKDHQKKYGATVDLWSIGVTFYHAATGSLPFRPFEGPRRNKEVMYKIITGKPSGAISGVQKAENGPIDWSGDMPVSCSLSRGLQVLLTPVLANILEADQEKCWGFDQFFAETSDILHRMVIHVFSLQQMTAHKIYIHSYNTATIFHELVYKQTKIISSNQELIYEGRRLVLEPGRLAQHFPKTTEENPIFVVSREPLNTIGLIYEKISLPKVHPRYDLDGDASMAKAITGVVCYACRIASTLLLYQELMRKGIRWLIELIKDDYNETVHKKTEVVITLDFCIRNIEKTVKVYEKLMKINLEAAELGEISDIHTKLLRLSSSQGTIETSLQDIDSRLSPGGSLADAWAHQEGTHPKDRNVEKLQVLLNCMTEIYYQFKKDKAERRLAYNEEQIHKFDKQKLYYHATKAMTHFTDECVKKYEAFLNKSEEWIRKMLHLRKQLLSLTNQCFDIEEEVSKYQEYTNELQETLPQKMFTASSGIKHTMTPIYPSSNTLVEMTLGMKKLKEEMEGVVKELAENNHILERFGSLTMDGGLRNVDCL
Procedure, shortened: (§1)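 Phosphorylation of casein or myelin basic protein was counted by P-81 filter capture after 30-45 min reactions stopped with phosphoric acid, with counts normalized to DMSO after background subtraction. ATP was twice Km: 60 μM for TBK1 and 32 μM for IKKε, plus [γ33]ATP. Sf9-expressed His-tag enzymes were used at normal/sensitized levels of 0.1/0.02 μg/ml (TBK1) and 0.1/0.015 μg/ml (IKKε).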

IKKε = molecular target: T2, IKKε (Homo sapiens, UniProt Q14164); assay: In-vitro IKKε kinase assay ([γ33]ATP filter-plate); type: biochemical
T2 construct: His-tag; made in house; host or cells: Sf9 insect cells
T2 sequence (Q14164 1-716): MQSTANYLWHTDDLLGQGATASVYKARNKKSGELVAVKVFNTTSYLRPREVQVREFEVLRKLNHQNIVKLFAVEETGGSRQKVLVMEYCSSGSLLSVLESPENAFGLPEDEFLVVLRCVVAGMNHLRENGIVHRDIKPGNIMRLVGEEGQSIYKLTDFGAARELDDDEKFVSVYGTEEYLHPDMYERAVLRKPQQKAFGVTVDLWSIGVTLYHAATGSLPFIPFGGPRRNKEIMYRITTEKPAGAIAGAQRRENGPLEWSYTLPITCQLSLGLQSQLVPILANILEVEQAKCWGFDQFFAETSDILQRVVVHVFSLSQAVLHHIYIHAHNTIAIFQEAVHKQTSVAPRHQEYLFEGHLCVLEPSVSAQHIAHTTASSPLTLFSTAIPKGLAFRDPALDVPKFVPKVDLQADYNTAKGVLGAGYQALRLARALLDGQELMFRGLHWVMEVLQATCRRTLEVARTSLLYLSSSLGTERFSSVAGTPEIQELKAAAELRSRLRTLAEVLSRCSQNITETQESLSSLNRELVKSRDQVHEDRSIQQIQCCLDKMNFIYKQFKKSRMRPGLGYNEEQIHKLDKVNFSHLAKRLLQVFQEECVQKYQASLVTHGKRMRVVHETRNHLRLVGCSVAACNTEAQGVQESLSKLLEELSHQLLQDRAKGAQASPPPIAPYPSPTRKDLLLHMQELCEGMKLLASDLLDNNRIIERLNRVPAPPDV
Procedure, shortened: as §1

[1] = test system: IKKε-mediated phosphorylation of IRF3; assay: In-situ phosphorylation of IRF3 (pIRF3 Ser396 ELISA) in HEK293T cells cotransfected with IRF3 and IKKε; type: cell-based; conditions: Homo sapiens, HEK-293T
Procedure, shortened: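 For the IRF3 ELISA, HEK293T cells cotransfected with IRF3 and IKKε were replated at 20,000/well and treated 20 h. Phospho-Ser396 IRF3 was measured by ELISA and normalised to DMSO, with viability checked by CellTiter-Glo. For IRF7, cells transfected with IRF7 and TBK1 were treated overnight, and pSer477/Ser479 IRF7 was detected by Western blot.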

[2] = text bins, read-out: IC50 for inhibition of the kinase activity of TBK1
[3] = text bins, read-out: IC50 for inhibition of the kinase activity of IKKε
[4] = HEK293T cells, 20 hours, text bins, read-out: IC50 for inhibition of the in-situ IKKε-mediated phosphorylation of IRF3

SMILES | IC50 (TBK1; [2]) | IC50 (IKKε; [3]) | IC50 [1, 4] | IC50 (TBK1; Table 3, read-out: TBK1 IC50) | IC50 (IKKε; Table 3, read-out: IKKε IC50) | IC50 ([1]; HEK293T cells in culture, Table 3, read-out: pIRF3 ELISA IC50)
COc1cc(Nc2nccc(-c3ccc(OC4CCOCC4)c(C#N)c3)n2)ccc1CN1CCN(CCO)CC1 [compound 477, 5-{2-[(4-{[4-(2-Hydroxyethyl)piperazin-1-yl]methyl}-3-methoxyphenyl)amino]pyrimidin-4-yl}-2-(tetrahydro-2H-pyran-4-yloxy)benzonitrile] | 10 to 100 nM | < 5 nM | < 100 nM | – | – | –
COCCNCc1ccc(Nc2nccc(-c3ccc(OC4CCOCC4)c(C#N)c3)n2)cc1OC [compound 478, 5-{2-[(3-Methoxy-4-{[(2-methoxyethyl)amino]methyl}phenyl)amino]pyrimidin-4-yl}-2-(tetrahydro-2H-pyran-4-yloxy)benzonitrile] | < 10 nM | < 5 nM | < 100 nM | – | – | –
COc1cc(Nc2nccc(-c3ccc(OC4CCOCC4)c(C#N)c3)n2)ccc1CN1CCN(C)CC1 [compound 479, 5-[2-({3-Methoxy-4-[(4-methylpiperazin-1-yl)methyl]phenyl}amino)pyrimidin-4-yl]-2-(tetrahydro-2H-pyran-4-yloxy)benzonitrile] | < 10 nM | < 5 nM | < 100 nM | – | – | –
COc1cc(Nc2nccc(-c3ccc(OC4CCOCC4)c(C#N)c3)n2)ccc1CN1C[C@@H](C)O[C@@H](C)C1 [compound 480, 5-{2-[(4-{[(2R,6S)-2,6-Dimethylmorpholin-4-yl]methyl}-3-methoxyphenyl)amino]pyrimidin-4-yl}-2-(tetrahydro-2H-pyran-4-yloxy)benzonitrile] | < 10 nM | < 5 nM | < 100 nM | – | – | –
COc1cc(Nc2nccc(-c3ccc(OC4CCOCC4)c(C#N)c3)n2)ccc1CN1CC(N2CCOCC2)C1 [compound 481, 5-{2-[(3-Methoxy-4-{[3-(morpholin-4-yl)azetidin-1-yl]methyl}phenyl)amino]pyrimidin-4-yl}-2-(tetrahydro-2H-pyran-4-yloxy)benzonitrile] | < 10 nM | < 5 nM | < 100 nM | – | – | –
COc1cc(Nc2nccc(-c3ccc(OC4CCOCC4)c(C#N)c3)n2)ccc1CN1CC(OC)C1 [compound 482, 5-[2-({3-Methoxy-4-[(3-methoxyazetidin-1-yl)methyl]phenyl}amino)pyrimidin-4-yl]-2-(tetrahydro-2H-pyran-4-yloxy)benzonitrile] | < 10 nM | < 5 nM | < 100 nM | – | – | –
COc1cc(Nc2nccc(-c3ccc(OC4CCOCC4)c(C#N)c3)n2)ccc1CN1CC(O)C1 [compound 483, 5-[2-({4-[(3-Hydroxyazetidin-1-yl)methyl]-3-methoxyphenyl}amino)pyrimidin-4-yl]-2-(tetrahydro-2H-pyran-4-yloxy)benzonitrile] | < 10 nM | 5 to 50 nM | < 100 nM | – | – | –
COc1cc(Nc2nccc(-c3ccc(OC4CCOCC4)c(C#N)c3)n2)ccc1C(=O)N1CC(OC)C1 [compound 484, 5-[2-({3-Methoxy-4-[(3-methoxyazetidin-1-yl)carbonyl]phenyl}amino)pyrimidin-4-yl]-2-(tetrahydro-2H-pyran-4-yloxy)benzonitrile] | 10 to 100 nM | < 5 nM | < 100 nM | – | – | –
COc1cc(Nc2nccc(-c3ccc(OC4CCOCC4)c(C#N)c3)n2)ccc1C(=O)N1CC(O)C1 [compound 485, 5-[2-({4-[(3-Hydroxyazetidinb-1-yl)carbonyl]-3-methoxyphenyl}amino)pyrimidin-4-yl]-2-(tetrahydro-2H-pyran-4-yloxy)benzonitrile] | < 10 nM | < 5 nM | < 100 nM | – | – | –
N#Cc1cc(-c2ccnc(Nc3ccc(CN)cc3)n2)ccc1OC1CCOCC1 [compound 486, 5-(2-{[4-(aminomethyl)phenyl]amino}pyrimidin-4-yl)-2-(tetrahydro-2H-pyran-4-yloxy)benzonitrile] | < 10 nM | < 5 nM | 250 to 500 nM | – | – | –

Now from value to molecule:

IC50 (TBK1; [2]) | IC50 (IKKε; [3]) | IC50 [1, 4] | IC50 (TBK1; Table 3, read-out: TBK1 IC50) | IC50 (IKKε; Table 3, read-out: IKKε IC50) | IC50 ([1]; HEK293T cells in culture, Table 3, read-out: pIRF3 ELISA IC50) | SMILES
< 10 nM | < 5 nM | 100 to 250 nM | – | – | – | CC1(COc2ccc(-c3ccnc(Nc4ccc(N5CCN(CCO)CC5)cc4)n3)cc2C#N)COC1 [compound 437, 5-[2-({4-[4-(2-Hydroxyethyl)piperazin-1-yl]phenyl}amino)pyrimidin-4-yl]-2-[(3-methyloxetan-3-yl)methoxy] benzonitrile]
< 10 nM | < 5 nM | < 100 nM | – | – | – | N#Cc1cc(-c2ccnc(Nc3ccc(N4CCOCC4)cc3)n2)ccc1OCC1CC1 [compound 438, 2-(cyclopropylmethoxy)-5-(2-{[4-(morpholin-4-yl)phenyl]amino}pyrimidin-4-yl)benzonitrile]
< 10 nM | < 5 nM | < 100 nM | 0.3 nM | 0.4 nM | 8 nM | N#Cc1cc(-c2ccnc(Nc3ccc(N4CCN(CCO)CC4)cc3)n2)ccc1OCC1CC1 [compound 439, 2-(Cyclopropylmethoxy)-5-[2-({4-[4-(2-hydroxyethyl)piperazin-1-yl]phenyl}amino)pyrimidin-4-yl]benzonitrile]
< 10 nM | < 5 nM | < 100 nM | – | – | – | COc1cc(-c2ccnc(Nc3ccc(N4CCOCC4)cc3)n2)cc(C#N)c1OC1CCNCC1 [compound 440, 3-Methoxy-5-(2-{[4-(morpholin-4-yl)phenyl]amino}pyrimidin-4-yl)-2-(piperidin-4-yloxy)benzonitrile]
< 10 nM | < 5 nM | < 100 nM | – | – | – | CC1(COc2ccc(-c3ccnc(Nc4ccc(N5CCOCC5)cc4)n3)cc2C#N)COC1 [compound 444, 2-[(3-Methyloxetan-3-yl)methoxy]-5-(2-{[4-(morpholin-4-yl)phenyl]amino}pyrimidin-4-yl)benzonitrile]
< 10 nM | 5 to 50 nM | 250 to 500 nM | – | – | – | CCC(=O)Nc1ccc(-c2ccnc(Nc3ccc(N4CCOCC4)cc3)n2)cc1C#N [compound 445, N-[2-Cyano-4-(2-{[4-(morpholin-4-yl)phenyl]amino}pyrimidin-4-yl)phenyl] propanamide]
< 10 nM | 5 to 50 nM | < 100 nM | – | – | – | N#Cc1cc(-c2ccnc(Nc3ccc(N4CCOCC4)cc3)n2)ccc1NC1CCOCC1 [compound 468, 5-(2-{[4-(morpholin-4-yl)phenyl]amino}pyrimidin-4-yl)-2-(tetrahydro-2H-pyran-4-ylamino) benzonitrile]
< 10 nM | < 5 nM | < 100 nM | – | – | – | COc1cc(Nc2nccc(-c3ccc(OC4CCOCC4)c(C#N)c3)n2)ccc1C(=O)N1CC(N2CCOCC2)C1 [compound 475, 5-{2-[(3-Methoxy-4-{[3-(morpholin-4-yl)azetidin-1-yl]carbonyl}phenyl)amino]pyrimidin-4-yl}-2-(tetrahydro-2H-pyran-4-yloxy)benzonitrile]
< 10 nM | < 5 nM | < 100 nM | – | – | – | COc1cc(Nc2nccc(-c3ccc(OC4CCOCC4)c(C#N)c3)n2)ccc1C(=O)N1CCN(CCO)CC1 [compound 476, 5-{2-[(4-{[4-(2-Hydroxyethyl)piperazin-1-yl]carbonyl}-3-methoxyphenyl)amino]pyrimidin-4-yl}-2-(tetrahydro-2H-pyran-4-yloxy)benzonitrile]
